In this test the target is T1, P2X purinoceptor 3 (Homo sapiens, UniProt P56373).
T1 sequence (P56373 whole entry): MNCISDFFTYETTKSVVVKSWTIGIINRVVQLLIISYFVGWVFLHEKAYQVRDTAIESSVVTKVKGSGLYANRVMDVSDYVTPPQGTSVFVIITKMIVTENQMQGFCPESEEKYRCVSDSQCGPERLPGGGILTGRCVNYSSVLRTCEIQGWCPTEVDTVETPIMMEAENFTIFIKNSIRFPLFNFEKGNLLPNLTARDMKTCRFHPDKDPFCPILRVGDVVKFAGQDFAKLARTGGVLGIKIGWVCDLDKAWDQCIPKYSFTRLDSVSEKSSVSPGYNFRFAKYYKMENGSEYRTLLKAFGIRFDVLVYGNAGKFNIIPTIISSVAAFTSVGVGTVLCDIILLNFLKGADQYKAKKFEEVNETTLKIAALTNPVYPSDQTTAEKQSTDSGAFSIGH
Nature of the test: Inhibiton Assay: Inhibition assay using human P2X3 receptor gene (GeneBank accession number Y07683).
On to `COc1ccccc1C1c2c(n[nH]c2C(C)(C)CO)C(=O)N1c1ccc(Br)cc1` (stereo not drawn), for which the half-maximal inhibitory concentration (IC50) (as a rule, the concentration that gives 50% inhibition) was 473 nM.
Turning to `COc1ncccc1C1c2c(n[nH]c2C(C)(C)C)C(=O)N1c1ccc(Br)cc1` (stereo not drawn), 811 nM corresponded to half-maximal inhibition (IC50).
The molecule `COc1ccccc1C1c2c(n[nH]c2C(C)(C)C)C(=O)N1c1ccc(Br)cc1` (stereo not drawn) registered an IC50 of 238 nM.

(Values after ChEMBL document CHEMBL3638540, “Pyrolinone derivative and pharmaceutical composition comprising the same” (2013).)
